# Experimental data: patent US20250186398A1, “CONTINUOUS DOSING REGIMEN FOR TREATMENT OF A CONDITION OF THE EYE” (EYEPOINT PHARMACEUTICALS, INC., priority 2022, published 2025)
# Key:
# [1] = Intravitreal Pharmacokinetic Study of vorolanib insert (Example 5A); type: in vivo, Male Dutch Belted Rabbits
# Method: An Intravitreal Pharmacokinetic Study was performed in Male Dutch Belted Rabbits. The objective of this study was to characterize the plasma and ocular tissue pharmacokinetics of a vorolanib insert following bilateral intravitreal injection on Day 1. Animals were evaluated up to 24 months following placement of the intravitreal insert.
# The low dose group (1) received 3 inserts per eye for a total dose of 630 μg per eye. The high dose group (2) animals received 6 inserts per eye given in 2 separate injections (3 inserts per injection) for a total dose of 1,260 μg per eye.
# Prior to each scheduled sacrifice point, one whole blood sample was collected from a targeted 2 animals per group via puncture of a marginal ear vein. Samples were tested for levels of vorolanib and its metabolite. Two animals per group were euthanized on day 1 at 6, 12, 24 and 48 hours, on days 7 and 14, and at 1, 2, 4, 6, 8, 16 and 24 months.
# [2] = Intravitreal Pharmacokinetic Study of vorolanib insert, 12 months (Example 5B); type: in vivo, Dutch Belted Rabbits
# Method: Another Intravitreal Pharmacokinetic Study was performed in Dutch Belted Rabbits. The objective of this study was to evaluate the plasma and ocular pharmacokinetics of a vorolanib insert following bilateral intravitreal injection in rabbit eyes. Animals were evaluated up to 12 months following placement of the intravitreal insert.
# Dutch Belted rabbits were administered vorolanib inserts in each eye by intravitreal injection. Group 1 eyes received 1 insert containing 643 μg of vorolanib, and Group 2 eyes received 2 inserts containing 900 μg total. Blood samples were collected at 2, 7, 14, and 28 days and then once monthly for months 2-12. Inserts were recovered at 2, 7, and 14 days and then at 1, 2, 4, 6, 8, 10, and 12 months. Residual vorolanib levels were determined in all explants using high-performance liquid chromatography. The vorolanib release rate was estimated based on residual levels in the explants. Plasma and ocular tissues were separated and analyzed for vorolanib and its metabolite using liquid chromatography-mass spectrometry.
# [3] = 18 month intravitreal toxicity and plasma pharmacokinetics study (Example 6); type: in vivo
# Method: An 18 month intravitreal toxicity study for the insert was also performed in 80 Dutch Belted rabbits (40 male and 40 female). Animals were evaluated for a period of 6 and 18 months following placement of intravitreal inserts. The objective was to characterize the ocular toxicity, plasma pharmacokinetics and biodegradation of a vorolanib insert following bilateral intravitreal injection.
# The tables below describe the group assignments and dose levels. For the toxicology groups, animals were sacrificed at 6 months and 18 months. For the plasma pharmacokinetic analysis, blood samples were collected at Days 1, 3, and 7 and then 1, 2, 3, 4, 5, 6, 12, 14, 16 and 18 Months.
# The placebo group (1) animals received two placebo inserts by injection in each eye. The low dose group (2) animals received 2 inserts in each eye. The mid dose group (3) animals received 3 inserts in each eye given in 2 separate injections. The high dose group (4) animals received 4 inserts in each eye given in 2 separate injections (2 inserts/injection). The highest dose group (5) animals received 6 inserts in each eye given in 2 separate injections (3 inserts/injection).
# At each scheduled timepoint, whole blood was collected via puncture of a marginal ear vein. Samples were analyzed for clinical pathology and plasma pharmacokinetics. Animals were euthanized according to the schedules described above. A complete gross necropsy was performed on all animals that were sacrificed or found dead during the study. Organs were weighed and tissues collected. Ocular tissues were collected for histopathology only.
# [4] = system: Laser-Induced Choroidal Neovascularization (CNV); assay: Swine (Mini-pig) Model of Laser-Induced Choroidal Neovascularization, fluorescein angiography (Example 7); type: in vivo
# Method: Safety and efficacy of a vorolanib insert were evaluated in a Swine (Mini-pig) Model of Laser-Induced Choroidal Neovascularization (CNV). The primary objective of this study was to evaluate the long-term safety and inhibition of vascular permeability and neovascularization in a laser-induced model of choroidal neovascularization (CNV) using a vorolanib insert in swine.
# On the day of lasering (Groups 1-4) animals were treated with an 810 nm diode laser delivered through an indirect ophthalmoscope. Approximately 6 single laser spots were placed between retinal veins. Both eyes underwent laser treatment according to the schedule in the table above.
# On the day of intravitreal injections animals were anesthetized and the eyes were aseptically prepared. […] Animals were allowed to recover normally from the procedure. The pigs were given a topical drop of antibiotic ophthalmic solution 4-6 hours later, and then BID for 2 additional days with at least 6 hours between doses. Animals were dosed on either Day 0 immediately following laser CNV induction or 7 days prior to laser CNV induction according to the schedule in the table above.
# Flourescein Angiography was done in both eyes in anesthetized animals at the timepoints as indicated in the experimental design table.
Compound,"dose proportionality of maximum observed concentrations in vitreous and retina/choroid ([1]; 630 vs 1,260 μg per eye)","vorolanib plasma levels ([1]; PK study, intravitreal inserts)",change in plasma levels ([1]; after 99 days),drop in mean vorolanib concentration in ocular tissues and plasma ([2]; between months 8 and 10),vorolanib exposure rank order ([2]; ocular tissues and plasma),concentrations in target ocular tissues (choroid and retina) relative to IC50 for VEGFR2 ([2]; through 8 months),vorolanib levels in the vitreous and the retina/choroid relative to IC50 for VEGFR ([3]; at the time points tested),vorolanib plasma levels ([3]; intravitreal inserts),adverse findings attributed to vorolanib ([3]; up to 6 inserts per eye),efficacy in this model ([4]; 2 mg IVT),"reduction in Corrected Total Lesion Fluorescence (CTLF) from Day 7 to Day 28, rank among Groups 1-4 ([4]; Group 1, 2 mg, 50 μL/eye IVT, Day 0)"
"Cc1[nH]c(/C=C2\C(=O)Nc3ccc(F)cc32)c(C)c1C(=O)N[C@H]1CCN(C(=O)N(C)C)C1 [vorolanib, (S,Z)—N-(1-(Dimethylcarbamoyl)pyrrolidin-3-yl)-5-((5-fluoro-2-oxoindolin-3-ylidene)methyl)-2,4-dimethyl-1H-pyrrole-3-carboxamide]",nearly dose proportional,low pg/mL range,No apparent change,85%-99%,choroid=retina=vitreous>aqueous humor>plasma,above the IC50 for VEGFR2,significantly above the IC50 for VEGFR,low pg/mL range,No adverse findings,,
"aflibercept: VEGF inhibitor (Regeneron), intravitreal standard of care, comparator in swine CNV model",,,,,,,,,,normal amounts of efficacy,largest reduction
